test system: Palmitoyl CoA oxidation in rat heart mitochondria; test: Palmitoyl CoA oxidation in isolated rat heart mitochondria (Mitochondrial Assays); format: biochemical; settings: 1-C14 palmitoyl CoA, 15 min at 30° C., read-out: Palm CoA inhibition IC50
Method: Rat heart mitochondria are isolated by the method of Nedergard and Cannon (Methods in Enzymol. 55, 3, 1979).
Palmitoyl CoA oxidation—The Palmityl CoA oxidation is carried out in a total volume of 100 micro liters containing the following agents: 110 mM KCl, 33 mM Tris buffer at pH 8, 2 mM KPi, 2 mM MgCl2, 0.1 mM EDTA, 14.7 microM defatted BSA, 0.5 mM malic acid, 13 mM carnitine, 1 mM ADP, 52 micrograms of mitochondrial protein, and 16 microM 1-C14 palmitoyl CoA (Sp. Activity 60 mCi/mmole; 20 microCi/ml, using 5 microliters per assay). The compounds of this invention are added in a DMSO solution at the following concentrations: 100 micro molar, 30 micro molar, and 3 micro molar. In each assay, a DMSO control is used. After 15 min at 30° C., the enzymatic reaction is centrifuged (20,000 g for 1 min), and 70 microliters of the supernatant is added to an activated reverse phase silicic acid column (approximately 0.5 ml of silicic acid). The column is eluted with 2 ml of water, and 0.5 ml of the eluent is used for scintillation counting to determine the amount of C^14 trapped as C^14 bicarbonate ion.

| IC50 | Compound |
| --- | --- |
| 8.2 µM | CC(=O)NC(COc1ccc2sc(C)nc2c1)CN1CCN(C(=O)Nc2ccc3c(c2)Cc2ccccc2-3)CC1 (stereo not shown) [N-{2-[4-(N-fluoren-2-ylcarbamoyl)piperazinyl]-1-[(2-methylbenzothiazol-5-yloxy)methyl]ethyl}acetamide] |
| 12.7 µM | CC(=O)NC(COc1ccc2sc(C)nc2c1)CN1CCN(CC(=O)Nc2cccc(-c3ccccc3)c2)CC1 (stereo not shown) [2-{4-[2-(acetylamino)-3-(2-methylbenzothiazol-5-yloxy)propyl]piperazinyl}-N-(3-phenylphenyl)acetamide] |
| 3 µM | N-fluoren-2-yl(4-{3-(2-methylbenzothiazol-5-yloxy)-2-[(methylsulfonyl)amino]propyl}-piperazinyl)carboxamide |
| 2.9 µM | Cc1nc2cc(OCC(CN3CCN(CC(=O)Nc4cccc(-c5ccccc5)c4)CC3)NS(C)(=O)=O)ccc2s1 (stereo not shown) [2-(4-{3-(2-methylbenzothiazol-5-yloxy)-2-[(methylsulfonyl)amino]propyl}piperazinyl)-N-(3-phenylphenyl)acetamide] |

Reference: patent US7601721B2, “Substituted heterocyclic compounds” (Gilead Palo Alto, Inc., priority 2004, dated 2009)
